Laboratory results reported in patent US11021481B2, “Substituted isoindolin-1-ones and 2,3-dihydro-1h-pyrrolo[3,4-c]pyridin-1-ones as HPK1 antagonists” (Nimbus Saturn, Inc., priority 2019, dated 2021).
Structures can show the parent of a compound that is named as a salt.

biological target: HPK1 (Homo sapiens (Human), UniProt Q92918); assay: HPK1 biochemical enzyme assay (microfluidic mobility shift assay); conditions: 1.5 nM HPK1, ATP 1 mM final, 30 min preincubation, 60 min at RT, Caliper EZ Reader; read-out: HPK1 1000UMATP caliper IC50
Method: HPK1 biochemical enzyme assay: HPK1 enzyme inhibition was measured using a microfluidic mobility shift assay. […] Test compounds were titrated in ten point curves (top final assay concentration 3 μM), and preincubated with enzyme/substrate mix for 30 min prior to initiation of the reaction by addition of ATP (1 mM final concentration) and substrate (1 μM final concentration; Carna Biosciences) diluted in assay buffer supplemented by MgCl2 (final assay concentration of 5 mM). Following 60 min incubation at RT, the reaction was terminated by addition of 60 µl/well termination buffer (Carna Biosciences) and signal determination using aCaliper EZ Reader (Perkin Elmer, UK).
The compound numbers correspond to the compound numbers in Table 1.

HPK1, sequence (Q92918 whole entry): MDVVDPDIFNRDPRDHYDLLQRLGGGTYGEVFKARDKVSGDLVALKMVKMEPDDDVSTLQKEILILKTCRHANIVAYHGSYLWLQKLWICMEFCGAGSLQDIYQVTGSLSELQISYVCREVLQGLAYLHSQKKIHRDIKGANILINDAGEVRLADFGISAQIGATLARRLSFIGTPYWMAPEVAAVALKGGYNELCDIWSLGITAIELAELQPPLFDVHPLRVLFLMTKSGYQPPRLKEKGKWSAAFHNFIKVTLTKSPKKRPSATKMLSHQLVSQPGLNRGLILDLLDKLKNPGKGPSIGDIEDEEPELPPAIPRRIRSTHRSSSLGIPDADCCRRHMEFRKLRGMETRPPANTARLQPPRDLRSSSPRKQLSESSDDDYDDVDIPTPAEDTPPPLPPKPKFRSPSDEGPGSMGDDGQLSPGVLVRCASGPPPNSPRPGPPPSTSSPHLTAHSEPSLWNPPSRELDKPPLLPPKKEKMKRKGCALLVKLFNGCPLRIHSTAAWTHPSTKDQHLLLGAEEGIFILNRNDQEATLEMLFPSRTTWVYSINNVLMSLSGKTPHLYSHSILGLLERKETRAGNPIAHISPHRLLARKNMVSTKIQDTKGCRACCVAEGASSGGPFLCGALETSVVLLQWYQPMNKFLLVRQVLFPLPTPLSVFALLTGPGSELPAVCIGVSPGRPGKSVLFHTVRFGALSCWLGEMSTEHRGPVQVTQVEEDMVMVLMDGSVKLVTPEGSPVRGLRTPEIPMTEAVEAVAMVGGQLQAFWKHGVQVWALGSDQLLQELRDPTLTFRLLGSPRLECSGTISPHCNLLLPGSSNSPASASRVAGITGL

IC50 [nM]	Structure (SMILES)
> 1000	O=C1NCc2c(-c3cccn4ccnc34)ncc(Nc3ccc(N4CCC(O)CC4)cn3)c21 [I-384, 7-((5-(4-hydroxy-piperidin-1-yl)pyridin-2-yl)amino)-4-(imidazo[1,2-a]pyridin-8-yl)-2,3-dihydro-1H-pyrrolo[3,4-c]pyridin-1-one]
> 1000	CN1C[C@H]2CCN(c3cccc(Nc4cnc(-c5ccnc6c5ccn6C)c5c4C(=O)NC5)n3)[C@H]2C1 [I-631, 4-(1-methyl-1H-pyrrolo[2,3-b]pyridin-4-yl)-7-((6-((3aR,6aR)-5-methylhexahy-dropyrrolo[3,4-b]pyrrol-1(2H)-yl)pyridin-2-yl)amino)-2,3-dihydro-1H-pyrrolo[3,4-c]pyridin-1-one]
< 100	Cc1ccn2c(-c3ncc(Nc4ccc(N5CCC(O)CC5)cn4)c4c3CNC4=O)cnc2c1 [I-154, 7-[[5-(4-hydroxy-1-piperidyl)-2-pyridyl]amino]-4-(7-methylimidazo [1,2-a]pyridin-3-yl)-2,3-dihydropyrrolo [3,4-c]pyridin-1-one]
< 100	Cc1ccn2c(-c3ccc(Nc4ccc(N5CCC[C@@H](C(C)(C)O)C5)cn4)c4c3CNC4=O)cnc2n1 [I-233, 7-[[5-[(3R)-3-(1-hydroxy-1-methyl-ethyl)-1-piperidyl)-2-pyridyl)-amino]-4-(7-methylimidazo [1,2-a]pyrimidin-3-yl]isoindolin-1-one]
< 100	C[C@@H](O)[C@@H]1CN(c2ccc(Nc3ccc(-c4cnc5cc(F)ccn45)c4c3C(=O)NC4)nc2)CCO1 [I-635, 4-(7-fluoroimidazo[1,2-a]pyridin-3-yl)-7-((5-((S)-2-((R)-1-hydroxyethyl)morpholino)pyridin-2-yl)amino)isoindolin-1-one]
< 100	O=C1NCc2c(-c3cnc4cc(F)ccn34)ccc(Nc3ccc([C@H]4CCOC4)c(CN4CC(F)C4)n3)c21 [I-762, (R)-7-((6-((3-fluoroazetidin-1-yl)methyl)-5-(tetrahydrofuran-3-yl)pyridin-2-yl)amino)-4-(7-fluoroimidazo [1,2-a]pyridin-3-yl)isoindolin-1-one]
< 100	CN(C)Cc1cc(C2CCCO2)cc(Nc2ccc(-c3cnc4cc(F)ccn34)c3c2C(=O)NC3)n1 (stereo not shown) [I-852, 7-((6-((dimethylamino)-methyl)-4-(tetrahydrofuran-2-yl)pyridin-2-yl)amino)-4-(7-fluoroimidazo [1,2-a]pyridin-3-yl)isoindolin-1-one Formate salt]
< 100	O=C1NCc2c(-c3ccnc4ccsc34)ccc(Nc3ccc(N4CCNCC4)cn3)c21 [I-107, 7-[(5-piperazin-1-yl-2-pyridyl)amino]-4-thieno[3,2-b]pyridin-7-yl-isoindolin-1-one]
< 100	CN(Cc1nc(Nc2ccc(-c3cnc4cc(F)ccn34)c3c2C(=O)NC3)ccc1[C@@H]1CCOC1)C1CC1 [I-738]
< 100	Cc1ccn2c(-c3ccc(Nc4ccc(N5CCC(O)(CN6CCN(C)CC6)CC5)cn4)c4c3CNC4=O)cnc2c1F [I-444, 4-(8-fluoro-7-methylimidazo [1,2-a]pyridin-3-yl)-7-((5-(4-hydroxy-4-((4-methylpiperazin-1-yl)methyl)piper-idin-1-yl)pyridin-2-yl)amino)isoin-dolin-1-one]
< 100	Cc1ccn2c(-c3ccc(Nc4ccc(C5CCOC5)cn4)c4c3CNC4=O)cnc2c1 (stereo not shown) [I-155]
< 100	C[C@H](c1ccc(Nc2ccc(-c3cnc4cc(F)ccn34)c3c2C(=O)NC3)nc1)N1CCC[C@H](O)C1 (stereo in doubt) [I-514, 4-(7-fluoroimidazo [1,2-a]pyridin-3-yl)-7-((5-((R)-1-((S)-3-hydroxypiperidin-1-yl)ethyl)pyridin-2-yl)amino)isoin-dolin-1-one]
< 100	O=C1NCc2c(-c3cnc4cc(F)ccn34)ccc(Nc3ccc(N4CCOCC4)cn3)c21 [I-159, 4-(7-fluoroimidazo [1,2-a]pyridin-3-yl)-7-[(5-morpholino-2-pyridyl)amino] isoindolin-1-one]
< 100	Cn1ccc2c(-c3ncc(Nc4ccc(N5C[C@H]6C[C@@H]5CO6)cn4)c4c3CNC4=O)ccnc21 [I-289, 7-((5-((1R,4R)-2-oxa-5-azabicyclo[2.2.1]heptan-5-yl)pyridin-2-yl)amino)-4-(1-methyl-1H-pyrrolo[2,3-b]pyridin-4-yl)-2,3-dihydro-1H-pyrrolo[3,4-c]pyridin-1-one]
< 100	Cn1ccc2c(-c3ncc(Nc4ccnc(N5CC[C@H]6CNC[C@H]65)n4)c4c3CNC4=O)ccnc21 [I-684, 7-((2-((3aS, 6aS)-hexahydro-pyrrolo[3,4-b]pyrrol-1(2H)-yl)pyrimidin-4-yl)amino)-4-(1-methyl-1H-pyrrolo[2,3-b)pyridin-4-yl)-2,3-dihydro-1H-pyrrolo[3,4-c]pyridin-1-one]
< 100	CN1CC(c2ccn3c(-c4ccc(Nc5ccc(N6CCC(O)CC6)cn5)c5c4CNC5=O)cnc3c2)C1 [I-411, 7-((5-(4-hydroxy-piperidin-1-yl)pyridin-2-yl)amino)-4-(7-(1-methylazetidin-3-yl)imidazo[1,2-a]pyridin-3-yl)isoindolin-1-one]

IC50 [nM]	Structure (SMILES)
< 100	Cn1ccc2c(-c3ncc(Nc4cccc(N5C[C@H](N)CC5=O)n4)c4c3CNC4=O)ccnc21 [I-691, (R)-7-((6-(4-amino-2-oxopyrrolidin-1-yl)pyridin-2-yl)amino)-4-(1-methyl-1H-pyrrolo[2,3-b]pyridin-4-yl)-2,3-dihydro-1H-pyrrolo[3,4-c]pyridin-1-one]
< 100	CN1CCO[C@]2(CCCN(c3ccc(Nc4ccc(-c5cnc6cc(F)ccn56)c5c4C(=O)NC5)nc3)C2)C1 [I-506a, (R)-4-(7-fluoroimidazo [1,2-a]pyridin-3-yl)-7-((5-(4-methyl-1-oxa-4,8-diazaspiro[5.5]undecan-8-yl)pyridin-2-yl)amino)isoin-dolin-1-one]
< 100	CN(C)Cc1nc(Nc2ccc(-c3cnc4cc(F)ccn34)c3c2C(=O)NC3)ccc1S(C)(=O)=O [I-796, 7-((6-((dimethylamino)-methyl)-5-(methylsulfon-yl)pyridin-2-yl)amino)-4-(7-fluoroimidazo [1,2-a]pyridin-3-yl)isoindolin-1-one]
< 100	O=C1NCc2c(-c3cnc4cc(Cl)ccn34)ccc(Nc3ccc(N4CCC(O)(CN5CCOCC5)CC4)cn3)c21 [I-447, 4-(7-chloroimidazo [1,2-a]pyridin-3-yl)-7-((5-(4-hydroxy-4-(morpholino-methyl)piperidin-1-yl)pyridin-2-yl)amino)isoin-dolin-1-one]
100 to 1000	Cn1cc2ncc(-c3ccc(Nc4ccc(N5CCC(O)CC5)cn4)c4c3CNC4=O)c-2cn1 [I-448, 7-((5-(4-hydroxy-piperidin-1-yl)pyridin-2-yl)amino)-4-(6-methyl-6H-pyrrolo[2,3-d]pyridazin-3-yl)isoindolin-1-one]
< 100	O=C1NCc2c(-c3cnc4cc(F)ccn34)ccc(Nc3cccc(N4CC[C@H]5CNC[C@H]54)n3)c21 [I-497, 4-(7-fluoroimidazo [1,2-a]pyridin-3-yl)-7-((6-((3aS,6aS)-hexahydropy-rrolo[3,4-b]pyrrol-1(2H)-yl)pyridin-2-yl)amino)isoin-dolin-1-one]
< 100	COc1ccc2ncc(-c3ccc(Nc4ccc(N5CCC(O)CC5)cn4)c4c3CNC4=O)n2c1 [I-142, 7-[[5-(4-hydroxy-1-piperidyl)-2-pyridyl]amino]-4-(6-methoxy-imidazo[1,2-a]pyridin-3-yl)-isoindolin-1-one]
< 100	COC[C@@H]1CN(c2ccc(Nc3ccc(-c4cnc5c(F)c(C)ccn45)c4c3C(=O)NC4)nc2)CCO1 [I-579, (S)-4-(8-fluoro-7-methylimidazo [1,2-a]pyridin-3-yl)-7-((5-(2-(methoxymeth-yl)morpho-lino)pyridin-2-yl)amino)isoin-dolin-1-one]
100 to 1000	O=C1NCc2c(-c3cnc4cc(F)ccn34)ccc(Nc3ccc(C4CCOC4)c(N4CCNCC4)n3)c21 (stereo in doubt) [I-773, (R)-4-(7-fluoroimidazo [1,2-a]pyridin-3-yl)-7-((6-(piperazin-1-yl)-5-(tetrahydrofuran-3-yl)pyridin-2-yl)amino)isoin-dolin-1-one]
< 100	CC(C)NCc1nc(Nc2ccc(-c3cnc4cc(F)ccn34)c3c2C(=O)NC3)ccc1[C@H]1CCOC1 [I-559, (R)-4-(7-fluoroimidazo [1,2-a]pyridin-3-yl)-7-((6-((isopropylamino)-methyl)-5-(tetrahydrofuran-3-yl)pyridin-2-yl)amino)isoin-dolin-1-one]
< 100	O=C1NCc2c(-c3cnc4cc(F)ccn34)ccc(Nc3ccc(N4CCO[C@H](C5(O)CC5)C4)cn3)c21 (single isomer, unassigned) [I-662]
< 100	CN1CCN(c2ccc(Nc3ccc(-c4c[nH]c5ccccc45)c4c3C(=O)NC4)nc2)CC1 [I-46, 4-(1H-indol-3-yl)-7-[[5-(4-methylpiperazin-1-yl)-2-pyridyl]amino] isoindolin-1-one]
< 100	CN(C)CCc1nc(Nc2cnc(-c3ccnc4c3ccn4C)c3c2C(=O)NC3)ccc1C1CCOC1 (stereo in doubt) [I-807, (R)-7-((6-(2-(dimethylami-no)ethyl)-5-(tetrahydrofuran-3-yl)pyridin-2-yl)amino)-3-(1-methyl-1H-pyrrolo[2,3-b)pyridin-4-yl)-2,3-dihydro-1H-pyrrolo[3,4-c]pyridin-1-one]
< 100	O=C1NCc2c(-c3cnc4cccnn34)ccc(Nc3ccc(N4CCNCC4)cn3)c21 [I-82, 4-imidazo[1,2-b]pyridazin-3-yl-7-[(5-piperazin-1-yl-2-pyridyl)amino] isoindolin-1-one]
< 100	CN(C)CCNC(=O)C(C)(C)c1ccc(Nc2ccc(-c3cnc4cc(F)ccn34)c3c2C(=O)NC3)nc1 [I-227, N-[2-(dimethylami-no)ethyl]-2-[6-[[7-(7-fluoroimidazo [1,2-a]pyridin-3-yl)-3-oxo-isoindolin-4-yl]amino]-3-pyridyl]-2-methyl-propanamide]
